From patent US20060166985A1, “Pyrrolydin-2-one derivatives as inhibitors of thrombin and factor xa” (priority 2002, published 2006)

Target: human Thrombin (Homo sapiens, UniProt P00734)
Test: In vitro assay for inhibition of Thrombin (chromogenic or fluorogenic assay)
Assay type: biochemical
Settings: Example 2 chromogenic assay, other Examples fluorogenic assay, read-out: thrombin inhibitory Ki
Procedure: Thrombin inhibitory activity is measured by the ability to inhibit human α-thrombin in a chromogenic assay using N-p-tosyl-gly-pro-lys p-nitroanilide as the chromogenic substrate, or in a fluorogenic assay using Rhodamine 110, bis-(CBZ-L-valyl-L-prolyl-L-arginine amide) as the fluorogenic substrate.
The compound was diluted from a 10 mM stock solution in dimethylsulfoxide at appropriate concentrations. Assay was performed at room temperature using buffer consisting of: 50 mM HEPES, 150 mM NaCl, 5 mM CaCl2, 0.1% PEG, pH 7.4. containing human Thrombin (final conc. of 1 nM). Compound and enzyme were preincubated for 15 min prior to addition of the substrate (final conc. of 100 μM). The reaction was stopped after 30 min with the addition of soybean trypsin inhibitor or H-D-PHE-PRO-ARG-Chloromethylketone. […] To obtain IC50 values the data were analysed using ActivityBase® and XLfit®.
Compounds were diluted from a 10 mM stock solution in dimethylsulfoxide at appropriate concentrations. Assay was performed at room temperature using buffer consisting of: 50 mM HEPES, 150 mM NaCl, 5 mM CaCl2, 0.1% PEG, pH 7.4. containing human Thrombin (final conc. Of 0.2 nM). Compound and enzyme were preincubated for 15 min prior to addition of the substrate (final conc. of 10 μM). The reaction was stopped after 3 hrs with the addition of H-D-PHE-PRO-ARG-Chloromethylketone. […] To obtain IC50 values the data were analysed using ActivityBase® and XLfit®.

SMILES	Ki
C[C@@H](C(=O)N1CCOCC1)N1CC[C@H](NS(=O)(=O)/C=C(\F)c2ccc(Cl)cc2)C1=O [Example 28, (Z)-2-(4-chlorophenyl)-2-fluoro-N-{(3S)-1-[(1S)-1-methyl-2-morpholin-4-yl-2-oxoethyl]-2-oxopyrrolidin-3-yl}ethenesulfonamide]	< 25 nM
CC[C@H](C)[C@@H](C(=O)N1CCOCC1)N1CC[C@H](NS(=O)(=O)CC(F)(F)c2ccc(Cl)cc2)C1=O [Example 29, 2-(4-chlorophenyl)-2,2-difluoro-N-{(3S)-1-[(1S,2S)-2-methyl-1-(morpholin-4-ylcarbonyl)butyl]-2-oxopyrrolidin-3-yl}ethanesulfonamide]	< 25 nM
CC[C@H](C)[C@@H](C(=O)N1CCOCC1)N1CC[C@H](NS(=O)(=O)/C=C(\F)c2ccc(Cl)cc2)C1=O [Example 30, (Z)-2-(4-chlorophenyl)-2-fluoro-N-{(3S)-1-[(1S,2S)-2-methyl-1-(morpholin-4-ylcarbonyl)butyl]-2-oxopyrrolidin-3-yl}ethenesulfonamide]	< 200 nM
O=C(C[C@@H](C(=O)N1CCOCC1)N1CC[C@H](NS(=O)(=O)CCc2ccc(Cl)s2)C1=O)N1CCOCC1 [Example 31]	< 200 nM
CN(C)C(=O)C[C@@H](C(=O)N1CCOCC1)N1CC[C@H](NS(=O)(=O)CCc2ccc(Cl)s2)C1=O [Example 32]	< 50 nM
C[C@@H](C(=O)N1CCOCC1)N1CC[C@H](NS(=O)(=O)CCc2ccc(Br)cc2)C1=O [Example 33, 2-(4-bromophenyl)-N-{(3S)-1-[(1S)-1-methyl-2-morpholin-4-yl-2-oxoethyl]-2-oxopyrrolidin-3-yl}ethanesulfonamide]	< 25 nM
CCOC(=O)CN([C@H]1CCN([C@@H](C)C(=O)N2CCOCC2)C1=O)S(=O)(=O)CCc1ccc(Cl)s1 [Example 34, Ethyl N-{[2-(5-chlorothien-2-yl)ethyl]sulfonyl}-N-{(3S)-1-[(1S)-1-methyl-2-morpholin-4-yl-2-oxoethyl]-2-oxopyrrolidin-3-yl}glycinate]	< 25 nM
COC(=O)CN([C@H]1CCN([C@@H](C)C(=O)N2CCOCC2)C1=O)S(=O)(=O)CCc1ccc(Cl)s1 [Example 35, Methyl N-{[2-(5-chlorothien-2-yl)ethyl]sulfonyl}-N-{(3S)-1-[(1S)-1-methyl-2-morpholin-4-yl-2-oxoethyl]-2-oxopyrrolidin-3-yl}glycinate]	< 25 nM
CC(C)C[C@@H](C(=O)N1CCOCC1)N1CC[C@H](NS(=O)(=O)CCc2ccc(Cl)s2)C1=O [Example 37, 2-(5-chlorothien-2-yl)-N-{(3S)-1-[(1S)-3-methyl-1-(morpholin-4-ylcarbonyl)butyl]-2-oxopyrrolidin-3-yl}ethanesulfonamide]	< 100 nM
CC[C@H](C)[C@@H](C(=O)N1CCOCC1)N1CC[C@H](N(C)S(=O)(=O)CCc2ccc(Cl)s2)C1=O [Example 38, 2-(5-chlorothien-2-yl)-N-methyl-N-{(3S)-1-[(1S,2S)-2-methyl-1-(morpholin-4-ylcarbonyl)butyl]-2-oxopyrrolidin-3-yl}ethanesulfonamide]	< 10 nM
CC[C@H](C)[C@@H](C(=O)N1CCOCC1)N1CC[C@H](N(CC(=O)NC)S(=O)(=O)CCc2ccc(Cl)s2)C1=O [Example 39, N^2-{[2-(5-chlorothien-2-yl)ethyl]sulfonyl}-N^1-methyl-N^2-{(3S)-1-[(1S,2S)-2-methyl-1-(morpholin-4-ylcarbonyl)butyl]-2-oxopyrrolidin-3-yl}glycinamide]	< 25 nM
CC[C@H](C)[C@@H](C(=O)N1CCOCC1)N1CC[C@H](N(CC(=O)N(C)C)S(=O)(=O)CCc2ccc(Cl)s2)C1=O [Example 40, N^2-{[2-(5-chlorothien-2-yl)ethyl]sulfonyl)-N^1,N^1-dimethyl-N^2-{(3S)-1-[(1S,2S)-2-methyl-1-(morpholin-4-ylcarbonyl)butyl]-2-oxopyrrolidin-3-yl}glycinamide]	< 10 nM
